Test results: patent publication US10189824B2, “Pyrimidine-diamine dual HSP90/TRAP1 inhibitors” (CalAsia Pharmaceuticals, Inc., priority 2014, dated 2019)
pEC50, pIC50: −log10 of the molar value.

Assays:
GBM39 = assay: Cellular efficacy in Mayo Clinic GBM PDX cell line GBM39; format: cell-based
Description: (§1) Short-term explant cultures from PDX models were seeded into 96-well Perfecta3D hanging drop plates to form a single spheroid in each well after 2 days. The spheroids were transferred to a round bottom 96 well plate by centrifugation and then incubated with graded concentrations of test compound (8 spheroids per compound concentration). Spheroid volumes were monitored every 6 hours over the course of 5 days using the IncuCyte system (Essen BioScience, MI, US) to provide a growth curve akin to a tumor regrowth assay.

[1] = tested on: Hsp90 client proteins (Akt1, ERK1) in HEI193; assay: Cellular biomarker assays (Akt1, ERK1 ELISA) in HEI193; format: cell-based, human; details: 48 hour treatment
Description: Cellular biomarker assays: Cells were cultured in culture medium (RPMI-glutamax, 10% FCS, 100 units/ml penicillin, and 100 μg/ml streptomycin). Cells were passaged after lifting using 0.25% trypsin/EDTA, and 3×10^5 cells were seeded in each well of six well plates (total volume 2.5 mL/well). After the cells were cultured for 24 hours, increasing concentrations of Hsp90 inhibitor were added to wells in triplicate from DMSO-containing stock solutions and mixed by gently by stirring. Final DMSO concentration in all wells was 0.25%. The treated cells were then cultured for 48 hours prior to lysate preparation. The culture media was removed from wells, and the wells were washed twice with DPBS containing 1 mM CaCl2 and 0.5 mM MgCl2. […] The protein concentration in the cell lysates was determined using the BCA protein assay kit used according to the manufacturer's recommendations. […] Protein concentrations were determined using a micro-titer plate reader (Model # Synergy HT; BioTek Inc., Winooski, Vt.).
Akt1 and ERK1 levels in the cell lysates were measured using kits from R&D Systems used according to the manufacturer's recommendations. […] Akt1 and ERK1 levels were determined using a micro-titer plate reader (Model # Synergy HT; BioTek Inc., Winooski, Vt.) (FIGS. 5 and 8).

[2] = tested on: Hsp90 client proteins (EGFR and Akt1) in Mayo Clinic GBM PDX cell lines; assay: Cellular biomarker assays (EGFR, Akt1 ELISA) in Mayo Clinic GBM PDX cell lines; format: cell-based; details: 48 hours; three cell lines
[3] = tested on: Mayo Clinic patient derived GBM tumor cells; assay: Mayo Clinic patient derived GBM tumor cell proliferation; format: cell-based; details: 132 hours
Description: as §1

U251MG cells = assay: Cell viability assay, cellular dehydrogenase activity (CCK-8); format: cell-based; details: Homo sapiens, U-251; 72 h at 37° C.; FIG. 1A
Description: U251MG cells were maintained at 37° C. and 5% CO2 in RPMI media supplemented with glutamax and containing 10% heat-inactivated fetal bovine serum and 1% penicillin/streptomycin (Life Sciences).
A cell counting kit (CCK-8 assay kit, Dojindo) and an ADP-Glo assay (Life Technologies) were used to quantitate the effects of test compounds on cell viability. U251MG cells were seeded into 96 well tissue culture plates and incubated for 16 h at 37° C. with 5% CO2. Increasing concentrations of test compounds were added to the wells from DMSO-containing stock solutions to a final DMSO concentration of 0.05% and incubated for 72 hr at 37° C. CCK-8 kit reagent or ADP-GLO reagent were then added to the wells and absorbance was measured at 450 nm (for the CCK assay) using a Synergy HT micro-titer plate reader (Biotek) or luminescence was measured (for the ADP-GLO assay) using a POLARstar Omega micro-titer plate reader (BMG).

[4] = tested on: mitochondria isolated from U251MG cells; assay: TMRE assay, TMRE-loaded isolated mitochondria; format: cell-based; details: 30° C.
Description: For cell-based assays, cells were treated with various concentrations of the test compounds for 48 hours at 37° C., with 5% CO2. TMRE (200 nM) was then added to wells for 30 min and monitored for changes in fluorescence activity either by fluorescence microscopy using an inverted Zeiss LSM 710 confocal microscope or by spectrophotometry using a fluorescence plate reader (544ex/590em) after washing the cells. Specific TMRE fluorescence was calculated by comparison to matched wells pretreated with 20 uM FCCP for 10 min prior to addition of TMRE. For mitochondria assays, untreated U251MG cells grown to confluence in T75 culture flasks. Mitochondria from these cells were isolated using a mitochondria isolation kit (Thermo Scientific) and loaded with 0.1 mM TMRE in kit buffer at 37° C. for 20 min. After washing, the TMRE-loaded mitochondria (2 ug per well) were incubated in a 96 well black plate with test compounds and monitored kinetically at 30° C. for changes in fluorescence using a fluorescence plate reader (ex 544/em 590). The fluorescence intensity after treatment with 20 um FCCP in control wells corresponded to a fully depolarized state.

[5] = tested on: U251MG cell mitochondrial respiration; assay: Mitochondrial respiratory function assay (OCR, Seahorse); format: cell-based; details: U251MG cells, stressed conditions (oligomycin, FCCP, rotenone); within minutes
Description: The effect of test compounds on the mitochondrial oxygen consumption rate (OCR) was determined in real time using a Seahorse Xr24 extracellular flux analyzer (Seahorse Bioscience). The cell-based assay was performed essentially as recommended by the manufacturer. Briefly, cells were seeded in a 24 well XF plate using an appropriate cell density. “Flux Pak” cartridge (containing the O2 and H^+ sensitive fluorophores) were hydrated in the XF calibrant solution overnight just prior to running the assay. On the following day, the cells were replenished with XF assay media (unbuffered DMEM containing 10 mM glucose and 2 mM pyruvate) and placed in a CO2 free 37° C. incubator for an additional one hour. Basal OCR was measured before the wells were injected with test compounds. Subsequently, mitochondrial bioenergetics stress was determined by treating the cells sequentially with 0.125 mg/ml Oligomycin (ATP synthase inhibitor), […] FCCP (uncoupler) and […] rotenone (Complex I inhibitor) while continuously measuring the OCR.

**Q.** With `COc1c(C)cnc(CN(CC2(c3ccc(F)cc3)CCOCC2)c2cc(Cl)nc(N)n2)c1C` [Compound A, 6-chloro-4-N-{[4-(4-fluorophenyl)oxan-4-yl]methyl}-4-N-[(4-methoxy-3,5-dimethylpyridin-2-yl)methyl]pyrimidine-2,4-diamine] as the compound, how does the pEC50 (GBM39) read?
**A.** 6.66

**Q.** What about the “Effect on Akt1 and ERK1 levels, HEI193” value [1] of the same compound?
**A.** reduction of Hsp90 client proteins

**Q.** What about the “Effect on EGFR and Akt1 levels, GBM PDX cell lines” value [2] of the same compound?
**A.** suppression of Hsp90 client proteins

**Q.** What about the “Effect on patient derived GBM tumor cell proliferation” value [3] of the same compound?
**A.** inhibit

**Q.** How did the pIC50 (U251MG cells) turn out when `COc1c(C)cnc(CN(CCc2ccccn2)c2cc(Cl)nc(N)n2)c1C` [Compound 1, 6-chloro-4-N-[(4-methoxy-3,5-dimethylpyridin-2yl)methyl]-4-N-[2-(pyridine-2-yl)ethyl]pyrimidine-2,4-amine] was run?
**A.** 5.76

**Q.** And the “Membrane potential of isolated mitochondria reduced to” value ([4]; 4 uM)?
**A.** 61%

**Q.** And the “Membrane potential of isolated mitochondria reduced to” value ([4]; 20 uM)?
**A.** 52%

**Q.** And the “Effect on mitochondrial oxygen consumption rate” value [5]?
**A.** dose-dependent decrease
